Reference: PubChem BioAssay AID248 (DTP/NCI, 2004)
Values joined by “and” are separate entries in the source; they are usually repeats but may differ in a detail not shown here. Identical values can stand only once. Inconclusive results and toxic doses are left out. No stated cut-off is given here; in the data, active means T/C of 150% or more; inactive means T/C below 125%.

Tested on: L1210 leukemia ip in BDF1 mice, survival T/C
Assay: NCI In Vivo Anticancer Drug Screen. Data for tumor model L1210 Leukemia (intraperitoneal) in B6D2F1 (BDF1) mice
Conditions: endpoint: mean survival time, higher = longer survival
Outline: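 Read-out is survival time, reported as the treated-group measurement over the vehicle-control measurement.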

[1] = dose: 100.0 mg/kg/injection, schedule: Q01DX009 (ip), vehicle: saline with Tween-80
[2] = dose: 200.0 mg/kg/injection, schedule: Q01DX009 (ip), vehicle: saline with Tween-80
[3] = dose: 25.0 mg/kg/injection, schedule: Q01DX009 (ip), vehicle: saline
[4] = dose: 50.0 mg/kg/injection, schedule: Q01DX009 (ip), vehicle: saline
[5] = dose: 100.0 mg/kg/injection, schedule: Q01DX009 (ip), vehicle: saline
[6] = dose: 100.0 mg/kg/injection, schedule: Q04DX003 (ip), vehicle: saline
[7] = dose: 200.0 mg/kg/injection, schedule: Q04DX003 (ip), vehicle: saline
[8] = dose: 100.0 mg/kg/injection, schedule: Q04DX002 (ip), vehicle: saline
[9] = dose: 200.0 mg/kg/injection, schedule: Q04DX002 (ip), vehicle: saline
[10] = dose: 400.0 mg/kg/injection, schedule: Q04DX002 (ip), vehicle: saline
[11] = dose: 100.0 mg/kg/injection, schedule: Q01DX009 (ip), vehicle: Klucel (hydroxypropylcellulose) (HPC)
[12] = dose: 100.0 mg/kg/injection, schedule: Q04DX003 (ip), vehicle: Klucel (hydroxypropylcellulose) (HPC)
[13] = dose: 200.0 mg/kg/injection, schedule: Q01DX009 (ip), vehicle: Klucel (hydroxypropylcellulose) (HPC)
[14] = dose: 200.0 mg/kg/injection, schedule: Q04DX003 (ip), vehicle: Klucel (hydroxypropylcellulose) (HPC)
[15] = dose: 400.0 mg/kg/injection, schedule: Q01DX009 (ip), vehicle: Klucel (hydroxypropylcellulose) (HPC)
[16] = dose: 400.0 mg/kg/injection, schedule: Q04DX003 (ip), vehicle: Klucel (hydroxypropylcellulose) (HPC)
[17] = dose: 100.0 mg/kg/injection, schedule: Q04DX003 (ip), vehicle: saline with Tween-80
[18] = dose: 200.0 mg/kg/injection, schedule: Q04DX003 (ip), vehicle: saline with Tween-80
[19] = dose: 400.0 mg/kg/injection, schedule: Q01DX009 (ip), vehicle: saline with Tween-80
[20] = dose: 400.0 mg/kg/injection, schedule: Q04DX003 (ip), vehicle: saline with Tween-80
[21] = dose: 100.0 mg/kg/injection, schedule: Q01DX001 (ip), vehicle: saline
[22] = dose: 200.0 mg/kg/injection, schedule: Q01DX001 (ip), vehicle: saline
[23] = dose: 400.0 mg/kg/injection, schedule: Q01DX001 (ip), vehicle: saline
[24] = dose: 100.0 mg/kg/injection, schedule: Q04DX002 (ip), vehicle: saline with Tween-80
[25] = dose: 200.0 mg/kg/injection, schedule: Q04DX002 (ip), vehicle: saline with Tween-80
[26] = dose: 400.0 mg/kg/injection, schedule: Q04DX002 (ip), vehicle: saline with Tween-80

Measured: T/C

c1ccc(-c2nc(N3CCOCC3)nc3ccccc23)cc1
inactive: [1] 94 % of control | [2] 90 % of control

N=C(N)SCc1ccc(C(=O)Oc2ccc([N+](=O)[O-])cc2)cc1
inactive: [3] 97 % of control | [4] 100 % of control and 103 % of control | [5] 106 % of control | [6] 101 % of control | [7] 98 % of control

CCCC(=O)Nc1ccc(C(=O)OCC)cc1
inactive: [8] 93 % of control | [9] 100 % of control | [10] 107 % of control

O=C(O)CCCCCN1C(=O)C2=C(CCCC2)C1=O
inactive: dose: 75.0 mg/kg/injection, schedule: Q04DX003 (ip), vehicle: saline 98 % of control | dose: 150.0 mg/kg/injection, schedule: Q04DX003 (ip), vehicle: saline 103 % of control | dose: 300.0 mg/kg/injection, schedule: Q04DX003 (ip), vehicle: saline 93 % of control

COc1ccc(Cl)cc1NC(=O)Nc1ccc(Cl)cc1Cl
inactive: [11] 94 % of control | [12] 111 % of control | [13] 96 % of control | [14] 91 % of control | [15] 94 % of control | [16] 94 % of control

Nc1ccccc1/C=C(\C(=O)O)c1cccc(Cl)c1
inactive: [12] 99 % of control | [14] 101 % of control | [16] 108 % of control

CC1(Cl)C(=O)NC(=O)C1Cl (stereo not drawn)
inactive: dose: 3.12 mg/kg/injection, schedule: Q01DX009 (ip), vehicle: saline 92 % of control | dose: 6.25 mg/kg/injection, schedule: Q01DX009 (ip), vehicle: saline 87 % of control | [3] 87 % of control | dose: 25.0 mg/kg/injection, schedule: Q04DX003 (ip), vehicle: saline 103 % of control | [4] 92 % of control | dose: 50.0 mg/kg/injection, schedule: Q04DX003 (ip), vehicle: saline 97 % of control | [6] 110 % of control

Cc1ccc(NC(=O)Oc2ccc(F)cc2Cl)cc1NC(=O)Oc1ccc(F)cc1Cl
inactive: [1] 91 % of control | [17] 95 % of control | [2] 100 % of control | [18] 88 % of control | [19] 86 % of control | [20] 95 % of control

CC(=O)Nc1ccc(NC(=O)c2cccc3ccccc23)cc1
inactive: dose: 50.0 mg/kg/injection, schedule: Q01DX009 (ip), vehicle: Klucel (hydroxypropylcellulose) (HPC) 90 % of control | [11] 98 % of control and 86 % of control and 90 % of control | [13] 86 % of control | [15] 87 % of control and 89 % of control

NCC(=O)c1ccc(Cl)cc1
inactive: [21] 102 % of control | [22] 104 % of control

O=C(O)CCN(c1ccccc1)S(=O)(=O)c1ccccc1
inactive: [21] 94 % of control | [22] 94 % of control | [23] 94 % of control

CC(=O)Nc1ccc(NC(=O)C2CC2)cc1
inactive: [11] 95 % of control | [13] 109 % of control | [15] 104 % of control

COc1cc(OC)c(Br)cc1C
inactive: [1] 100 % of control | [17] 100 % of control | [2] 101 % of control | [18] 96 % of control | [19] 102 % of control | [20] 104 % of control

NC(N)=NCCCC(N)C(=O)O (stereo not drawn)
inactive: dose: 25.0 mg/kg/injection, schedule: Q04DX002 (ip), vehicle: saline 97 % of control | dose: 50.0 mg/kg/injection, schedule: Q04DX002 (ip), vehicle: saline 113 % of control | [21] 97 % of control | [5] 119 % of control | [8] 103 % of control and 97 % of control | [6] 102 % of control and 94 % of control | [22] 100 % of control | dose: 200.0 mg/kg/injection, schedule: Q01DX009 (ip), vehicle: saline 95 % of control | [9] 94 % of control | [7] 105 % of control and 90 % of control | [23] 103 % of control | dose: 400.0 mg/kg/injection, schedule: Q01DX009 (ip), vehicle: saline 97 % of control | [10] 94 % of control | dose: 400.0 mg/kg/injection, schedule: Q04DX003 (ip), vehicle: saline 109 % of control and 97 % of control

COC(=O)C12CCc3cc(OC)ccc3C1=CC(=O)C2 (stereo not drawn)
inactive: dose: 100.0 mg/kg/injection, schedule: Q04DX003 (ip), vehicle: saline sonified 101 % of control | dose: 200.0 mg/kg/injection, schedule: Q04DX003 (ip), vehicle: saline sonified 95 % of control | dose: 400.0 mg/kg/injection, schedule: Q04DX003 (ip), vehicle: saline sonified 94 % of control

ON=C1CCCCC1
inactive: dose: 75.0 mg/kg/injection, schedule: Q01DX009 (ip), vehicle: other 95 % of control | [21] 88 % of control | [1] 96 % of control | dose: 100.0 mg/kg/injection, schedule: Q04DX002 (ip), vehicle: other 111 % of control | [24] 97 % of control | dose: 150.0 mg/kg/injection, schedule: Q01DX009 (ip), vehicle: other 105 % of control | [22] 96 % of control | [2] 94 % of control | dose: 200.0 mg/kg/injection, schedule: Q04DX002 (ip), vehicle: other 97 % of control | [25] 94 % of control | dose: 300.0 mg/kg/injection, schedule: Q01DX009 (ip), vehicle: other 94 % of control | [23] 93 % of control | [19] 91 % of control | dose: 400.0 mg/kg/injection, schedule: Q04DX002 (ip), vehicle: other 97 % of control | [26] 102 % of control

CC(C)(C)NC(=O)Nc1ccccn1
inactive: [1] 102 % of control and 112 % of control | [24] 96 % of control | [17] 97 % of control | [2] 112 % of control and 91 % of control | [25] 108 % of control and 115 % of control | [18] 115 % of control | [19] 104 % of control | [26] 94 % of control and 96 % of control

CC1S(=O)(=O)CC(NC(=O)N(CCCl)N=O)CS1(=O)=O (stereo not drawn)
active: dose: 3.5 mg/kg/injection, schedule: Q01DX001 (ip), vehicle: saline with Tween-80 159 % of control | dose: 5.3 mg/kg/injection, schedule: Q01DX001 (ip), vehicle: saline with Tween-80 172 % of control and 208 % of control | dose: 8.0 mg/kg/injection, schedule: Q01DX001 (ip), vehicle: saline with Tween-80 278 % of control and 309 % of control | dose: 12.0 mg/kg/injection, schedule: Q01DX001 (ip), vehicle: saline with Tween-80 357 % of control [middle of 4 runs] | dose: 18.0 mg/kg/injection, schedule: Q01DX001 (ip), vehicle: saline with Tween-80 324 % of control and 421 % of control | dose: 26.0 mg/kg/injection, schedule: Q01DX001 (ip), vehicle: saline with Tween-80 444 % of control and 458 % of control | dose: 40.0 mg/kg/injection, schedule: Q01DX001 (ip), vehicle: saline with Tween-80 516 % of control and 442 % of control | dose: 60.0 mg/kg/injection, schedule: Q01DX001 (ip), vehicle: saline with Tween-80 421 % of control and 156 % of control | dose: 90.0 mg/kg/injection, schedule: Q01DX001 (ip), vehicle: saline with Tween-80 252 % of control and 258 % of control
inactive: dose: 135.0 mg/kg/injection, schedule: Q01DX001 (ip), vehicle: saline with Tween-80 116 % of control

O=C(O)CNC(=O)Nc1ccccc1
inactive: [1] 97 % of control | [17] 100 % of control | [2] 95 % of control | [18] 96 % of control | [19] 91 % of control | [20] 97 % of control

CCC(=O)NC1(C(=O)O)CCCc2ccccc21 (stereo not drawn)
inactive: [12] 110 % of control | [14] 96 % of control

COc1ccc(NC(=O)Nc2cc([N+](=O)[O-])ccc2C)cc1[N+](=O)[O-]
inactive: [11] 98 % of control | [13] 96 % of control | [15] 104 % of control

COc1cc([C@@H]2c3cc4c(cc3[C@H](OC(C)=O)[C@H]3COC(=O)[C@@H]23)OCO4)cc(OC)c1OC
inactive: dose: 33.0 mg/kg/injection, schedule: Q01DX009 (ip), vehicle: saline with Tween-80 97 % of control | [12] 98 % of control | [14] 90 % of control

[B-][NH2+]c1ccc([NH2+][B-])cc1
inactive: [21] 96 % of control | [22] 91 % of control | [23] 100 % of control

c1ccc(P(N2CCOCC2)N2CCOCC2)cc1
inactive: [24] 93 % of control | [25] 97 % of control | [26] 97 % of control
